In one experiment the test system is MCF7 Y537S. Description: MTT proliferation assay, MCF7 Y537S. Format: cell-based. Particulars: data not shown. The method, then:
(§1) To determine the EC50 of ARD150 and two of its derivatives in breast cancer, MCF7, ZR75-1 (wild-type ERα+), and MCF7 Y537S (constitutively activate ERα mutant) and their ARID4B KO counterparts were seeded in 24 well plate and treated with the various concentrations (0, 0.1, 1, 5, 10, 20, 40, 60, and 100 μM) of ARD150 and RWR-18 for 14 days. […] Knockout of ARID4B renders cells less sensitive to these compounds.

The next experiment relates to MCF7. Description: MTT proliferation assay, MCF7. Format: cell-based. To be noted: Homo sapiens, MCF7, 336 h, 14 days. The method, then:
as §1

For a further experiment, the system named is T47D. As to the kind of experiment: MTT proliferation assay, T47D. Format: cell-based. To be noted: data not shown. A general note: Formazan colour is commonly taken as a measure of viable cells.
In a further experiment the target is T1, ARID4B chromodomain (Homo sapiens, UniProt Q4LE39).
T1 sequence (Q4LE39 572-624 limits assumed): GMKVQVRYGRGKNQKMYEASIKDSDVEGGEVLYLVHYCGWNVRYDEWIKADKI
Description: Isothermal titration calorimetry (ITC). Format: binding. From the text:
It was then undertaken to identify compounds that inhibit ARID4B, focusing on the chromodomain therein. First, the structure of ARID4B was created using a homology model based on an optimized computational platform that combines the iterative threading assembly refinement (TASSER) and SWISSMODEL (FIG. 14A-B). Protein structure prioritization was based on protein-model accuracy, quantitatively measured C-score, TM-score and RMSD value. Next, in silico screening of 160,000 drug-like diverse small molecules from MOE's chemical repository combined with biophysical characterization including isothermal calorimetry (ITC, FIG. 16) and circular dichroism (data not shown) of identified compound ARD150 with recombinant ARID4B chromodomain informed chemical synthesis of diverse scaffolds.
Isothermal titration calorimetry (ITC) was used to confirm the binding of ARD150 and its derivative RWR18 (derived from ARD150 with slight structural modifications) to ARID4B chromodomain and to determine the Kd, reaction stoichiometry (n), enthalpy (ΔH) and entropy (ΔS). […] This highlights to power of rational design to tune the target engagement and affinity of ligands.
Background: Isothermal titration calorimetry measures the heat released or taken up as one component is titrated into another.

The next experiment has as its target T2, HA-ARID4B (Homo sapiens, UniProt Q4LE39).
T2 construct: transfected with vector, full-length ARID4B or ARID4B deletion mutants; expressed in transfected cells; host or cells: HEK-293T
T2 sequence (Q4LE39 1-1312): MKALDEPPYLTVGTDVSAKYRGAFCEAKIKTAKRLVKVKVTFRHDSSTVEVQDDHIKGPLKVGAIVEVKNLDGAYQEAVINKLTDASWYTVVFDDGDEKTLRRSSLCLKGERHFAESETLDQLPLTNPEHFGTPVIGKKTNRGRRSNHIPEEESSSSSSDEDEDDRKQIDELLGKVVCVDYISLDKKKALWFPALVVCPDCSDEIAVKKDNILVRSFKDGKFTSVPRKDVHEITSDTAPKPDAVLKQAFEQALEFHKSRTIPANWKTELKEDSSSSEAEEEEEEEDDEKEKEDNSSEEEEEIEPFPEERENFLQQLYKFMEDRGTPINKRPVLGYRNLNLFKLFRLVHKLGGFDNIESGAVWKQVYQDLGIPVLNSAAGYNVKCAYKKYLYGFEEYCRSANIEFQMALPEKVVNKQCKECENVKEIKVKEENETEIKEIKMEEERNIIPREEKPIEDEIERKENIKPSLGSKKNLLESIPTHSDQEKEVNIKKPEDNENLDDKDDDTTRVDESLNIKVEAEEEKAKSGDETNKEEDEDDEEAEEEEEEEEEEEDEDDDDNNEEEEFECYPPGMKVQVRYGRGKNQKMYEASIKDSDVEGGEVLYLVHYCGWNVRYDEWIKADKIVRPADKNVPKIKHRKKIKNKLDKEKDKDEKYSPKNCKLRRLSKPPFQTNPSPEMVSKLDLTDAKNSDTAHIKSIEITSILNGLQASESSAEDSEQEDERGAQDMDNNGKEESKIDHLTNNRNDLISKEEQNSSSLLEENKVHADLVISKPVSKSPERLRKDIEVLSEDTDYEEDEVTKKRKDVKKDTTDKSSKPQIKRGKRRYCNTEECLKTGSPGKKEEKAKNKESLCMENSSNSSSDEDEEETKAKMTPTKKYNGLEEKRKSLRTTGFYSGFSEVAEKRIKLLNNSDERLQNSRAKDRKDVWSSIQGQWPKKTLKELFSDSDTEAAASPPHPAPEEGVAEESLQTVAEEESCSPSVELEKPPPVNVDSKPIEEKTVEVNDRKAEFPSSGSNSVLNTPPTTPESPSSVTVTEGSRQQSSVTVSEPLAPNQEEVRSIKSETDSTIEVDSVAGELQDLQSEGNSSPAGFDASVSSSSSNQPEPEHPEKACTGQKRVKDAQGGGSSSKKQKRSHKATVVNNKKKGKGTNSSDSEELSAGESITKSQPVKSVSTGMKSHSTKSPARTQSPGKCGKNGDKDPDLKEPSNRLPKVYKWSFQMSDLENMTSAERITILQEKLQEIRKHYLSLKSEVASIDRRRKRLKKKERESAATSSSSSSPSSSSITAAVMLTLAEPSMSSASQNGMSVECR
As to the kind of experiment: CETSA in HEK-293T cells expressing HA-ARID4B. It counts as cell-based. Particulars: 10 μM, 2 h. The method, then:
(B-C) show cells expressing HA-ARID4B (C) or HA-ARID4BIC (D) treated or not with ARD150 (10 μM) for 2 h were used for CESTA. […] (D-E) show cells expressing HA-ARID4B (D) or Flag-ARID4A (E) treated or not with RWR-18 (10 μM) for 2 h were used for CESTA. […] Data are means±SEM from three experiments. *P<0.05, **P<0.01, ns, not significant.
Using CETSA (cellular thermal shift assay) to examine whether ARD150 or RWR-18 binds to ARID4B, MCF7 cells treated or not with ARD150 or RWR-18 for 2 h were collected, followed by heating at 46, 49, 52, 55, and 58° C. to denature and precipitate ARID4B protein, cell lysis, removal of cell debris and aggregates by centrifugation, and finally detection of remaining thermostable ARID4B protein by western blot. The ARID4B aggregation temperatures without ARD150 were determined to be 49-52° C., but shifted to 52-55° C. after treatment with ARD150 and even more so with RWR-18 (FIG. 15A-D). To determine whether ARD150 and RWR-18 targets the chromodomain of ARID4B, CESTA was performed using chromodomain deletion mutant (ARID4BAC). HEK-293T cells expressing HA-ARID4B or HA-ARID4BAC were treated or not with ARD150 (10 μM) for 2 h and processed for CESTA.

Another experiment has as its system MCF10A. As to the kind of experiment: Proliferation assay, non-tumorigenic MCF10A. Format: cell-based. To be noted: MCF10A expresses lower ARID4B.

From patent US20250099405A1, “COMPOSITIONS, METHODS, AND DEVELOPMENT OF ARID4B INHIBITORS” (University of Kentucky Research Foundation, priority 2022, published 2025) come the findings set out here.

One may read the EC50 as the midpoint of the concentration-response curve. What is called Kd is the equilibrium constant for the complex coming apart. The low end stands for tighter binding, the high end for weaker binding.

As to `O=C(COc1ccc(OCc2ccccc2)cc1)NCCCN1CCOCC1` [RWR-18], in the experiment with MCF7 Y537S, the “EC50 for MCF7 Y537S” value is listed as “comparable to that of MCF7”. The molecule further showed an EC50 with MCF7 of 7.9 µM. Further, the “EC50 for T47D” value in the experiment with T47D is “comparable to that of MCF7”. For the same molecule, the Kd at ARID4B chromodomain was found to be 1 µM. Moreover, the “shift of aggregation temperatures of HA-ARID4B” value on HA-ARID4B is given as “resulted in a shift of aggregation temperatures”. Besides, the “effect on non-tumorigenic MCF10A” value in the experiment on MCF10A was “insensitive”.

`COc1ccc(C(=O)NCCCN2CCOCC2)cc1OC` [ARD150]: in the experiment with MCF7 Y537S, the “EC50 for MCF7 Y537S” value is “comparable to that of MCF7”. This molecule displayed an EC50 in the experiment on MCF7 of 13.8 µM. Moreover, in the experiment with T47D, the “EC50 for T47D” value is listed as “comparable to that of MCF7”. On ARID4B chromodomain, binding was characterised by a dissociation constant (Kd) of 3.5 µM. Further, the “shift of aggregation temperatures of HA-ARID4B” value at HA-ARID4B was “resulted in a shift of aggregation temperatures”. For the same molecule, in the experiment on MCF10A, the “effect on non-tumorigenic MCF10A” value is “insensitive”.
